In brackets after ≈: the same amount, converted by molar mass. Where two headings read alike, the source gives them in different places.
Legend:
MRSA ATCC 43300 = system: MRSA ATCC 43300
Method: (§1) A positive control of a row of just the bacteria and a negative control of only the medium were included for every plate tested.
(§2) The compounds along with standard antibiotics were serially diluted 2-fold across the 96-well plates. […] A sample of each culture was then diluted 40-fold in fresh MH broth (in presence and absence of Tween) and incubated at 37°C for 2 to 3 h.
For experiments in the presence of surfactant, 2% beractant (25 mg/ml) was added to the mid-log-phase cultures and mixed gently and added to all the 96-well plates. For experiments in the presence of serum, a mixture of 50% of human serum along with 50% MHB was prepared and used throughout the experiment.

E. faecalis ATCC 29212 = assay: microbe, parasite or virus in culture; conditions: n = 2
Method: as §1, §2

[1] = system: MSSA S. aureus ATCC 25923; assay: microbe, parasite or virus in culture; conditions: n = 2
Method: as §1, §2

[2] = system: S. aureus GISA NRS 2; ATCC 700698; assay: microbe, parasite or virus in culture; conditions: n = 2
Method: as §1, §2

S. pneumoniae ATCC 33440 = assay: microbe, parasite or virus in culture; conditions: n = 2
Method: as §1, §2

[3] = system: S. pneumoniae ATCC 700677 (MDR); assay: microbe, parasite or virus in culture; conditions: n = 2
Method: as §1, §2

S. pyogenes ATCC 12344 = conditions: n = 2
Method: as §1, §2

MRSA = conditions: literature value; cited from earlier work
From the text: TABLE 1 Literature MIC values for tested antibiotics | column: MIC (µg/ml) (reference[s]) / MRSA

[4] = cited from earlier work
From the text: Other assay additives can affect MIC values. […] Plasma protein binding has been implicated as a major factor limiting the active free concentration of many clinically important antibiotics ([37][–][42]).

[5] = cited from earlier work; remark: listed apart in the source
From the text: Other assay additives can affect MIC values. […] This in turn translates into reduced ...

[6] = cited from earlier work; for concentration found, % of that expected: PS microtiter plates, [14C]oritavancin
Method: The majority of antibiotic stock solutions for testing are prepared in water, phosphate buffer, or pH-adjusted aqueous solution (106 out of 139 reported in CLSI M100 [see Table 6A, “Solvents and diluents for preparation of stock solutions of antimicrobial agents”]) ([3]). […] Furthermore, the CLSI reference MIC quality control range tabulated for dalbavancin an ...

`CCCCCCCCCCNCCN[C@@]1(C)C[C@H](O[C@H]2[C@H](Oc3c4cc5cc3Oc3ccc(cc3Cl)[C@@H](O)[C@@H](NC(=O)[C@@H](CC(C)C)NC)C(=O)N[C@@H](CC(N)=O)C(=O)N[C@H]5C(=O)N[C@H]3C(=O)N[C@H](C(=O)N[C@H](C(=O)O)c5cc(O)c(CNCP(=O)(O)O)c(O)c5-c5cc3ccc5O)[C@H](O)c3ccc(c(Cl)c3)O4)O[C@H](CO)[C@@H](O)[C@@H]2O)O[C@@H](C)[C@H]1O` [Telavancin, telavancin] gave an MIC (MRSA ATCC 43300; Corning NBS, MH + 2% LHB, 2% LS, n = 2) of 0.125 µg/mL, an MIC (MRSA ATCC 43300; Corning NBS, MH + 2% LHB, 50% HS, n = 2) of 0.25 µg/mL and an MIC (MRSA ATCC 43300; Corning NBS, MH + 2% LHB, no additive, n = 2) of 0.06 to 0.125 µg/mL. It also gave an MIC (MRSA ATCC 43300; Corning NBS, MH + T80, 2% LS, n = 2) of 0.06 to 0.125 µg/mL, an MIC (MRSA ATCC 43300; Corning NBS, MH + T80, 50% HS, n = 2) of 0.25 µg/mL and an MIC (MRSA ATCC 43300; Corning NBS, MH, 2% LS, n = 2) of 0.125 µg/mL (≈ 0.0712 µM). The MIC (MRSA ATCC 43300; Corning NBS, MH, 50% HS, n = 2) was 0.25 µg/mL (≈ 0.142 µM), the MIC (MRSA ATCC 43300; Corning PS, MH + 2% LHB, 2% LS, n = 2) was 0.125 µg/mL and the MIC (MRSA ATCC 43300; Corning PS, MH + 2% LHB, 50% HS, n = 2) was 0.125 to 0.25 µg/mL. The MIC (MRSA ATCC 43300; Corning PS, MH + 2% LHB, no additive, n = 2) was 0.06 µg/mL, the MIC (MRSA ATCC 43300; Corning PS, MH + T80, 2% LS, n = 2) was 0.06 to 0.25 µg/mL and the MIC (MRSA ATCC 43300; Corning PS, MH + T80, 50% HS, n = 2) was 0.25 µg/mL. The MIC (MRSA ATCC 43300; Corning PS, MH, 2% LS, n = 2) was 0.03 to 0.125 µg/mL, the MIC (MRSA ATCC 43300; Corning PS, MH, 50% HS, n = 2) was 0.125 to 0.25 µg/mL and the MIC (MRSA ATCC 43300; Corning TC, MH + 2% LHB, 2% LS, n = 2) was 0.25 to 1 µg/mL. It also gave an MIC (MRSA ATCC 43300; Corning TC, MH + 2% LHB, 50% HS, n = 2) of 2 to 8 µg/mL, an MIC (MRSA ATCC 43300; Corning TC, MH + 2% LHB, no additive, n = 2) of 0.125 µg/mL and an MIC (MRSA ATCC 43300; Corning TC, MH + T80, 2% LS, n = 2) of 0.125 to 0.25 µg/mL. It also gave an MIC (MRSA ATCC 43300; Corning TC, MH + T80, 50% HS, n = 2) of 0.25 to 1 µg/mL, an MIC (MRSA ATCC 43300; Corning TC, MH, 2% LS, n = 2) of 0.25 to 0.5 µg/mL and an MIC (MRSA ATCC 43300; Corning TC, MH, 50% HS, n = 2) of 0.5 to 1 µg/mL. The MIC (MRSA ATCC 43300; Corning flat NBS plate, MHB +0.002% T80, no further additive, n = 2) was 0.125 µg/mL (≈ 0.0712 µM), the MIC (MRSA ATCC 43300; Corning flat NBS plate, MHB −T80, no additive, n = 2) was 0.03 to 0.06 µg/mL and the MIC (MRSA ATCC 43300; Corning flat PS plate, MHB +0.002% T80, no further additive, n = 2) was 0.03 to 0.06 µg/mL. It also gave an MIC (MRSA ATCC 43300; Corning flat PS plate, MHB −T80, no additive, n = 2) of 0.06 µg/mL (≈ 0.0342 µM), an MIC (MRSA ATCC 43300; Corning flat TC plate, MHB +0.002% T80, no further additive, n = 2) of 0.125 to 0.25 µg/mL and an MIC (MRSA ATCC 43300; Corning flat TC plate, MHB −T80, no additive, n = 2) of 1 µg/mL (≈ 0.57 µM). For the same compound, the MIC (MRSA ATCC 43300; Nunc U TC plate, MHB +0.002% T80, n = 2) was 0.25 to 0.5 µg/mL, the MIC (MRSA ATCC 43300; Nunc U TC plate, MHB −T80, n = 2) was 0.5 µg/mL (≈ 0.285 µM) and the MIC (MRSA ATCC 43300; Nunc flat PS plate, MHB +0.002% T80, n = 2) was 0.06 µg/mL (≈ 0.0342 µM). The MIC (MRSA ATCC 43300; Nunc flat PS plate, MHB −T80, n = 2) was 0.06 µg/mL (≈ 0.0342 µM), the MIC (MRSA ATCC 43300; Nunc flat TC plate, MHB +0.002% T80, n = 2) was 0.125 to 0.25 µg/mL and the MIC (MRSA ATCC 43300; Nunc flat TC plate, MHB −T80, n = 2) was 0.5 to 1 µg/mL. For the same compound, the “MIC” value (MRSA ATCC 43300; TC plates without additive) was 0.5 to 1 µg/mL, the MIC (MRSA ATCC 43300; Trek PS, MH + 2% LHB, 2% LS, n = 2) was 0.06 to 0.25 µg/mL and the MIC (MRSA ATCC 43300; Trek PS, MH + 2% LHB, 50% HS, n = 2) was 0.06 to 0.125 µg/mL. It also gave an MIC (MRSA ATCC 43300; Trek PS, MH + 2% LHB, no additive, n = 2) of 0.015 µg/mL, an MIC (MRSA ATCC 43300; Trek PS, MH + T80, 2% LS, n = 2) of 0.06 µg/mL and an MIC (MRSA ATCC 43300; Trek PS, MH + T80, 50% HS, n = 2) of 0.125 to 0.25 µg/mL. For the same compound, the MIC (MRSA ATCC 43300; Trek PS, MH, 2% LS, n = 2) was 0.03 to 0.06 µg/mL, the MIC (MRSA ATCC 43300; Trek PS, MH, 50% HS, n = 2) was 0.125 µg/mL (≈ 0.0712 µM) and the MIC (MRSA ATCC 43300; Trek flat PS plate, MHB +0.002% T80, no further additive, n = 2) was 0.03 to 0.06 µg/mL. For the same compound, the MIC (MRSA ATCC 43300; Trek flat PS plate, MHB −T80, no additive, n = 2) was 0.03 to 0.06 µg/mL, the “MIC” value (MRSA ATCC 43300; all 3 untreated PS plates, with and without added T80) was “around 0.06 µg/ml” and the MIC (E. faecalis ATCC 29212; Corning NBS, MHB +T80) was 0.06 µg/mL (≈ 0.0342 µM). The MIC (E. faecalis ATCC 29212; Corning NBS, MHB -T80) was 0.06 to 0.125 µg/mL, the MIC (E. faecalis ATCC 29212; Corning PS, MHB +T80) was 0.03 to 0.06 µg/mL and the MIC (E. faecalis ATCC 29212; Corning PS, MHB -T80) was 0.125 to 0.5 µg/mL. The MIC (E. faecalis ATCC 29212; Corning TC, MHB +T80) was 0.06 to 0.125 µg/mL, the MIC (E. faecalis ATCC 29212; Corning TC, MHB -T80) was 0.5 to 4 µg/mL and the MIC ([1]; Corning NBS, MHB +T80) was 0.125 to 0.25 µg/mL. The MIC ([1]; Corning NBS, MHB -T80) was 0.06 to 0.125 µg/mL, the MIC ([1]; Corning PS, MHB +T80) was 0.25 to 0.5 µg/mL and the MIC ([1]; Corning PS, MHB -T80) was 0.25 to 2 µg/mL. It also gave an MIC ([1]; Corning TC, MHB +T80) of 0.25 µg/mL (≈ 0.142 µM), an MIC ([1]; Corning TC, MHB -T80) of 0.5 to 2 µg/mL and an MIC ([2]; Corning NBS, MHB +T80) of 0.125 µg/mL (≈ 0.0712 µM). The MIC ([2]; Corning NBS, MHB -T80) was 0.06 to 0.125 µg/mL, the MIC ([2]; Corning PS, MHB +T80) was 0.125 µg/mL (≈ 0.0712 µM) and the MIC ([2]; Corning PS, MHB -T80) was 0.125 to 0.5 µg/mL. The MIC ([2]; Corning TC, MHB +T80) was 0.25 µg/mL (≈ 0.142 µM), the MIC ([2]; Corning TC, MHB -T80) was 1 to 8 µg/mL and the MIC (S. pneumoniae ATCC 33440; Corning NBS, MHB +T80) was 0.125 µg/mL (≈ 0.0712 µM). For the same compound, the MIC (S. pneumoniae ATCC 33440; Corning NBS, MHB -T80) was 0.125 µg/mL (≈ 0.0712 µM), the MIC (S. pneumoniae ATCC 33440; Corning PS, MHB +T80) was 0.125 µg/mL (≈ 0.0712 µM) and the MIC (S. pneumoniae ATCC 33440; Corning PS, MHB -T80) was 0.5 to 4 µg/mL. For the same compound, the MIC (S. pneumoniae ATCC 33440; Corning TC, MHB +T80) was 0.25 µg/mL (≈ 0.142 µM), the MIC (S. pneumoniae ATCC 33440; Corning TC, MHB -T80) was 1 to 2 µg/mL and the MIC ([3]; Corning NBS, MHB +T80) was 0.06 to 0.125 µg/mL. For the same compound, the MIC ([3]; Corning NBS, MHB -T80) was 0.03 to 0.06 µg/mL, the MIC ([3]; Corning PS, MHB +T80) was 0.06 to 0.125 µg/mL and the MIC ([3]; Corning PS, MHB -T80) was 0.06 µg/mL (≈ 0.0342 µM). For the same compound, the MIC ([3]; Corning TC, MHB +T80) was 0.125 µg/mL (≈ 0.0712 µM), the MIC ([3]; Corning TC, MHB -T80) was 0.5 to 2 µg/mL and the MIC (S. pyogenes ATCC 12344; Corning NBS, MHB +T80) was 0.003 to 0.015 µg/mL. It also gave an MIC (S. pyogenes ATCC 12344; Corning NBS, MHB -T80) of no more than 0.003 µg/mL, an MIC (S. pyogenes ATCC 12344; Corning PS, MHB -T80) of no more than 0.003 µg/mL and an MIC (S. pyogenes ATCC 12344; Corning TC, MHB +T80) of 0.007 to 0.015 µg/mL. The MIC (S. pyogenes ATCC 12344; Corning TC, MHB -T80) was no more than 0.003 µg/mL, the “MIC (literature)” value (MRSA) was 0.06 ([66], [67]) µg/ml and the protein binding ([4]; literature values, reference given) was 90 to 93%. The half-life [5] was 8 h.

In the case of oritavancin, the “concentration found, % of that expected” value ([6]; 1 µg/ml) is listed as less than 10%, the “concentration found, % of that expected” value ([6]; 4 µg/ml) is listed as 35% and the “concentration found, % of that expected” value ([6]; 16 µg/ml) is listed as “approximately 70%”. The “underestimation of MIC values in the absence of added polysorbate 80” value [6] was 16- to 32 fold, the protein binding [4] was 82 to 90% and the half-life ([5]; in vivo) was 240 to 408 h.
